Assays:
PngR = molecular target: T1, PngR (Pseudo-nitzschia granii, UniProt A0A0A7RP02); assay: HPLC of retinal oxime isomers from purified holoprotein; absorption spectrum; assay type: binding; conditions: covalent; chromophore; light- and dark-adapted samples; 50 mM Tris-HCl pH 7.0, 1 M NaCl, 0.05% DDM
T1 construct: gene RHO; full length, E. coli codon-optimised, C-terminal His6 tag (pET21a NdeI-XhoI), expressed in E. coli BL21(DE3) with all-trans retinal, purified in DDM

Asp91 (position 91, …) = assay: UV-vis; conditions: room temperature (approximately 25°C), 1 M NaCl, Buffer A: 50 mM Tris-HCl, 0.05% (w/v) DDM, pH adjusted by addition of HCl, Dark/ground (unphotolysed) state with all-trans retinal, measured under room light, DDM-solubilised, folded (reversibility checked)

Row | Molecule | HPLC of retinal oxime isomers from purified holoprotein; absorption spectrum (PngR) | pKa (Asp91 (position 91, …))
1 | CC1=C(/C=C/C(C)=C/C=C/C(C)=C/C=O)C(C)(C)CCC1 [all-trans retinal] | In light- and dark-adapted samples, the isomeric state of retinal was predominantly all-trans | 
2 | PngR (Pseudo-nitzschia granii rhodopsin, xanthorhodopsin-like light-driven proton pump) (Pseudo-nitzschia granii) (protein) MVTANQFTIVYDVLSFSLATMMATTIFLWMRVPSVHEKYKSALIISGLVTFIAAYHYLRIFNSWTEAYEWTAEGELSATASPFNDAYRYMDWLLTVPLLLIEIILVMKLPADESRSKATTLGIASAAMIAIGYPGELAMSDDSLGTRWVYWIGAMLPFLYIVQTLLVGLNDATQSEADPAIRDLIKGVQWWTVISWCTYPVVYVFPMMGITGTNAIVGIQLGYSVSDIISKCGVGLMIYQITIAKSYALKKGNEETPLYG |  | approximately 5.0
